Measurements from patent publication US10273313B2, “Multimeric mannosides, a process for preparing the same and their uses as a drug” (CENTRE NATIONAL DE LA RECHERCHE SCIENTIFIQUE, priority 2012, dated 2019).
Values joined by “and” are separate entries in the source; they are usually repeats but may differ in a detail not shown here. Equal values may be shown once. Read-outs that look alike come from different tables or passages of the source.

What was measured:
[1] = test system: AIEC LF82 bacteria in colonic loops of CEABAC10 mice expressing human CEACAM6; experiment: Adhesion assay in colonic loops of CEABAC10 mice; assay type: in vivo; settings: dose of 0.1 μmol, 4 h incubation
Description: E. coli strain LF82 was isolated from a chronic ileal lesion of a patient with Crohn's disease (CD). Bacteria were grown routinely in Luria-Bertani (LB) broth overnight at 37° C.
The transgenic mouse model CEABAC10 expressing the human CEACAM6 protein is available in the UMR Inserm/Université d'Auvergne 1071 led by Professor Arlette Darfeuille-Michaud at Clermont-Ferrand. This model is particularly suitable to reproduce the abnormal colonization by AIEC bacteria through the interaction with CEACAM6 molecules that were observed abnormally expressed in the ileal mucosa of Crohn's disease patients.
Three colonic loops were realized in anesthetized CEABAC10 mice. A volume of 100 μl of a bacterial suspension containing 6×10^6 bacteria/mL with or without inhibitory compound was injected into the loops (here, compound 2, example 1) or heptyl-mannose at a concentration of 100 μM). After an incubation period of 4 h, mice were euthanized and each loop was longitudinally opened, extensively washed and homogenized to numerate adherent LF82 bacteria. Bacterial adhesion was expressed as percentages of residual adhesion (100% corresponds to the adhesion in absence of any compound).

[2] = test system: E. coli strain UTI89 in the bladder of C3H/HeN mice; experiment: In vivo inhibition in the murine cystitis model (instillation with UTI89)
Description: In vivo inhibition was evaluated by instilling 1-4 together with the UTI89 strain via a catheter in the bladder of C3H/HeN mice. […] A group of ten animals was used for each concentration of antagonists. […] The animals were sacrificed at a 6 h post infection time.
A murine model of urinary tract infection was used to test the ability of the compounds to inhibit the colonization of UTI89 in the bladder [Hung C. S.; Dodson, K. W., Hultgren S. J. Nat. Protoc. 2009, 4, 1230-1243 and Wellens A.; Garofalo C.; Nguyen H.; Van Gerven N.; Slättegård R.; Hernalsteens, J.-P.; Wyns, L.; Oscarson, S.; De Greve H.; Hultgren S. J.; Bouckaert, J. PLoS ONE 2008, 3, e2040]. The solution with high concentration of compounds was added to the resuspension of UTI89 before given to the mice. The eight-week old Female C3H/HeN mice (Harlan, Horst, The Netherlands) were anesthetized and infected via transurethral catheterization of 10^7 CFU UTI89 in solution in PBS, or in PBS with the compound in the mentioned concentration. The mice were sacrificed at 24 hours post infection and the bladders were harvested, homogenized and resuspended in PBS. The serial dilutions were spot on LB medium agar plates. The bacterial load was determined by counting the CFU recovered from the bladder. The animal experiments were approved by the Ethical Committer for Animal Experiments of Vrije Universiteit Brussel and complied with all relevant national legislation and institutional policies. The Mann-Whitney test was applied for the comparison of the data obtained from the untreated group and inhibition group in GraphPad Prism version 5.1 and two tailed P value were shown (GraphPad software).
A limited number of papers described the in vivo efficiency of anti-adhesive mannosides to treat UTIs.

[3] = biological target: T1, monovalent lectin domain of FimH (Escherichia coli, UniProt P08191); assay type: binding
T1 construct: with the monovalent lectin domain of FimH were measured using isothermal calorimetry (ITC)

FimH = FimH (Escherichia coli, UniProt P08191); settings: Isothermal Titration calorimetry (ITC); read-out: Dissociation constant of the HM-FimH complex; cited from earlier work
FimH, sequence (P08191 22-300): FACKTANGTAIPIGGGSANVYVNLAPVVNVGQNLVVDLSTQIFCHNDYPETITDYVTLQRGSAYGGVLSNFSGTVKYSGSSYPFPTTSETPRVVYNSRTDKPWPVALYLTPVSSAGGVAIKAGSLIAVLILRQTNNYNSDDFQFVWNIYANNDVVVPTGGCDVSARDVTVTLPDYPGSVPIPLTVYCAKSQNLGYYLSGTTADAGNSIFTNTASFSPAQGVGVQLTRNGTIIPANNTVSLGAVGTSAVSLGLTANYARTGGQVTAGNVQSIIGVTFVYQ

T1 sequence (P08191 22-179): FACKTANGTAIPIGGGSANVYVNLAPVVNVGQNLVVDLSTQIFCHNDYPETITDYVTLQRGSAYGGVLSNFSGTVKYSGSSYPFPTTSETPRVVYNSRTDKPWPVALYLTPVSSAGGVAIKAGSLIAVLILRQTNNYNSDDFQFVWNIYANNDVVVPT

OCC1OC(OCCCCCCCOCc2cn(CC3OC4OC5C(Cn6cc(COCCCCCCCOC7OC(CO)C(O)C(O)C7O)nn6)OC(OC6C(Cn7cc(COCCCCCCCOC8OC(CO)C(O)C(O)C8O)nn7)OC(OC7C(Cn8cc(COCCCCCCCOC9OC(CO)C(O)C(O)C9O)nn8)OC(OC8C(Cn9cc(COCCCCCCCOC%10OC(CO)C(O)C(O)C%10O)nn9)OC(OC9C(Cn%10cc(COCCCCCCCOC%11OC(CO)C(O)C(O)C%11O)nn%10)OC(OC%10C(Cn%11cc(COCCCCCCCOC%12OC(CO)C(O)C(O)C%12O)nn%11)OC(OC3C(O)C4O)C(O)C%10O)C(O)C9O)C(O)C8O)C(O)C7O)C(O)C6O)C(O)C5O)nn2)C(O)C(O)C1O (stereo not drawn) [Compound 2]
Bacterial adhesion in colonic loops compared with no inhibitor [1]: two-fold decreased adhesion | Bacterial reduction compared with monovalent 1 and 3 at 1 mM ([2]; 10 μM (1.8 and 2.5 μg)): equivalent bacterial reduction | Reduction of urinary tract infection ([2]; around 2 μg instilled in the mouse bladder, after 24 h): significantly reduced the urinary tract infection | Affinity of FimH for the ligand (in words) ([3]; ITC): nanomolar affinities | Molar ratio n meas ([3]; normal (direct) titration): 0.12 | ΔG° ([3]; normal (direct) titration): -10.5 kcal/mol | ΔH° ([3]; normal (direct) titration): -77.5 kcal/mol | ΔS° ([3]; normal (direct) titration): −227 cal/mol/deg | Kd ([3]; normal (direct) titration, compound injected into FimH): 18.2 nM | Molar ratio n meas ([3]; reverse titration): 3 and 3.01 | ΔG° ([3]; reverse titration): -11.6 kcal/mol | ΔH° ([3]; reverse titration): -19.2 kcal/mol | ΔS° ([3]; reverse titration): −25.9 cal/mol/deg | Kd ([3]; reverse titration, FimH injected into compound): 2.86 nM and 2.9 nM

CCCCCCCO[C@H]1O[C@H](CO)[C@@H](O)[C@H](O)[C@@H]1O [HM, Heptylmannoside, reference compound]
Kd (FimH): 7 nM
